Experimental data: US20240083897A1, “GCN2 MODULATING COMPOUNDS AND USES THEREOF” (HiberCell, Inc., priority 2021, published 2024)

Each compound was assayed against GCN2 (Homo sapiens (Human), UniProt Q9P2K8) (assay: TR-FRET biochemical assay for inhibition of GCN2). Details: not given.
Sequence of GCN2 (Q9P2K8 whole entry): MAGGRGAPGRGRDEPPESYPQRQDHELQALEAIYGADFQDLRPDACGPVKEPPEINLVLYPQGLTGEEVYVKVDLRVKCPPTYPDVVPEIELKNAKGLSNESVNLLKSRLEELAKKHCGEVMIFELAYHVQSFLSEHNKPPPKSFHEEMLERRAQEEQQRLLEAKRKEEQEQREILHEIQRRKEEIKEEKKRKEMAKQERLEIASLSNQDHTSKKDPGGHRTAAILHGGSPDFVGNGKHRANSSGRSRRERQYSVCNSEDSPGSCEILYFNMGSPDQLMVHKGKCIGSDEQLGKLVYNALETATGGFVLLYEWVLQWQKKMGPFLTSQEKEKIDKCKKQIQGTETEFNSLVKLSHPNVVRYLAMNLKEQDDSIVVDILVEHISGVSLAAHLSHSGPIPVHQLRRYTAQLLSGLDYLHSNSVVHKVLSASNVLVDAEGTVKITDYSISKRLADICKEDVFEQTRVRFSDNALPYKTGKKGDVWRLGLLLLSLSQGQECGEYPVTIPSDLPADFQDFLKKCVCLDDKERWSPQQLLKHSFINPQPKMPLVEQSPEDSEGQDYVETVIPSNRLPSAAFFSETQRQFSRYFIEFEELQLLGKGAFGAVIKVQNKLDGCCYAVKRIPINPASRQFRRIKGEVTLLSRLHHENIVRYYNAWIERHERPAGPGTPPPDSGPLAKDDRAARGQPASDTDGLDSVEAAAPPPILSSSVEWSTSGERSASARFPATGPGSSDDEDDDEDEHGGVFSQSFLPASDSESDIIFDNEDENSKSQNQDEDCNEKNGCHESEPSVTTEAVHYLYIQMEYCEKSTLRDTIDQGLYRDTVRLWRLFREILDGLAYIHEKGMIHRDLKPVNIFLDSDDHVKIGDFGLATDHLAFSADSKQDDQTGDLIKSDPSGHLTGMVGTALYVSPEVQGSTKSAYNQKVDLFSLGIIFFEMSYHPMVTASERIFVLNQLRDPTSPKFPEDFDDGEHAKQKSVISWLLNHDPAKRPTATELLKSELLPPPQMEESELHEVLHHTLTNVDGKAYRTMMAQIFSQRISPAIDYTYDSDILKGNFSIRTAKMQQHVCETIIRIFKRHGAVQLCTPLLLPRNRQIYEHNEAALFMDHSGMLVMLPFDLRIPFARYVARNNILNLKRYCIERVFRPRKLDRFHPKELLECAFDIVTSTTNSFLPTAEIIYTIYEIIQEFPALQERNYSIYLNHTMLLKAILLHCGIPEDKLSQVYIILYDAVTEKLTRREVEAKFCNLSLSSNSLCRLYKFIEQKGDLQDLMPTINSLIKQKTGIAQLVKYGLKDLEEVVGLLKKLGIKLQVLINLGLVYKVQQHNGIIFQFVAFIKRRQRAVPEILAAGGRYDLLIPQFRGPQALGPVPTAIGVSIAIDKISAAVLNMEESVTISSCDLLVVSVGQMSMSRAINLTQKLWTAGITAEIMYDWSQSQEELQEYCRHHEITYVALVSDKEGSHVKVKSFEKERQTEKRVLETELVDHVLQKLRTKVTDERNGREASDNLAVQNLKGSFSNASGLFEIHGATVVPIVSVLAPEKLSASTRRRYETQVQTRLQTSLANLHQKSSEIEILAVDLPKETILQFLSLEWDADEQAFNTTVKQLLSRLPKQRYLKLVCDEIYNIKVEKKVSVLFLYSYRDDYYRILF

SMILES | IC50
CNC(=O)c1ncn2c1CC[C@H](c1c(F)ccc(NS(=O)(=O)c3cc(C#N)cnc3OC)c1F)C2 [Compound 68-1, (R)-6-(3-((5-cyano-2-methoxypyridine)-3-sulfonamido)-2,6-difluorophenyl)-N-methyl-5,6,7,8-tetrahydroimidazo[1,5-a]pyridine-1-carboxamide] | 50 to 500 nM
CNC(=O)c1ncn2c1CC[C@@H](c1c(F)ccc(NS(=O)(=O)c3cc(C#N)cnc3OC)c1F)C2 [Compound 68-2, (S)-6-(3-((5-cyano-2-methoxypyridine)-3-sulfonamido)-2,6-difluorophenyl)-N-methyl-5,6,7,8-tetrahydroimidazo[1,5-a]pyridine-1-carboxamide] | 50 to 500 nM
COc1ncc(Cl)cc1S(=O)(=O)Nc1ccc(F)c([C@@H]2Cn3cnc(-c4ncc[nH]4)c3CN2C)c1F [Compound 73-1, 5-chloro-N-[2,4-difluoro-3-[(6R)-1-(1H-imidazol-2-yl)-7-methyl-5H,6H,8H-imidazo[1,5-a]pyrazin-6-yl]phenyl]-2-methoxypyridine-3-sulfonamide] | 50 to 500 nM
COc1ncc(Cl)cc1S(=O)(=O)Nc1ccc(F)c([C@H]2Cn3cnc(-c4ncc[nH]4)c3CN2C)c1F [Compound 73-2, 5-chloro-N-[2,4-difluoro-3-[(6S)-1-(1H-imidazol-2-yl)-7-methyl-5H,6H,8H-imidazo[1,5-a]pyrazin-6-yl]phenyl]-2-methoxypyridine-3-sulfonamide] | 50 to 500 nM

Same assay, conditions: GCN2 2 nM, 100 nM GFP-eIF2a, 150 μM ATP, TR-FRET

SMILES | IC50
COc1ncc(Cl)cc1S(=O)(=O)Nc1ccc(F)c(-c2ccc3c(-c4nnc(C)[nH]4)ncn3c2)c1F [Compound 57, 5-chloro-N-[2,4-difluoro-3-[1-(5-methyl-4H-1,2,4-triazol-3-yl)imidazo[1,5-a]pyridin-6-yl]phenyl]-2-methoxypyridine-3-sulfonamide] | < 50 nM
COc1ncc(F)cc1S(=O)(=O)Nc1ccc(F)c(-c2ccc3c(-c4nnc(C)[nH]4)ncn3c2)c1F [Compound 58, N-[2,4-difluoro-3-[1-(5-methyl-4H-1,2,4-triazol-3-yl)imidazo[1,5-a]pyridin-6-yl]phenyl]-5-fluoro-2-methoxypyridine-3-sulfonamide] | < 50 nM
COc1ncc(C#N)cc1S(=O)(=O)Nc1ccc(F)c(-c2ccc3c(-c4nnc(C)[nH]4)ncn3c2)c1F [Compound 59, 5-cyano-N-[2,4-difluoro-3-[1-(5-methyl-4H-1,2,4-triazol-3-yl)imidazo[1,5-a]pyridin-6-yl]phenyl]-2-methoxypyridine-3-sulfonamide] | < 50 nM
Cc1nnc(-c2ncn3cc(-c4c(F)ccc(NS(=O)(=O)c5cc(F)cnc5C)c4F)ccc23)[nH]1 [Compound 60, N-[2,4-difluoro-3-[1-(5-methyl-4H-1,2,4-triazol-3-yl)imidazo[1,5-a]pyridin-6-yl]phenyl]-5-fluoro-2-methylpyridine-3-sulfonamide] | < 50 nM
Cc1nnc(-c2ncn3cc(-c4c(F)ccc(NS(=O)(=O)c5cc(Cl)cnc5C)c4F)ccc23)[nH]1 [Compound 61, 5-chloro-N-[2,4-difluoro-3-[1-(5-methyl-4H-1,2,4-triazol-3-yl)imidazo[1,5-a]pyridin-6-yl]phenyl]-2-methylpyridine-3-sulfonamide] | < 50 nM
Cc1ncc(Cl)cc1S(=O)(=O)Nc1ccc(F)c(-c2ccc3c(-c4ccn(C)n4)ncn3c2)c1F [Compound 62, 5-chloro-N-[2,4-difluoro-3-[1-(1-methylpyrazol-3-yl)imidazo[1,5-a]pyridin-6-yl]phenyl]-2-methylpyridine-3-sulfonamide] | < 50 nM
COc1ncc(Cl)cc1S(=O)(=O)Nc1ccc(F)c(-c2ccc3c(-n4cnnn4)ncn3c2)c1F [Compound 63, 5-chloro-N-[2,4-difluoro-3-[1-(1,2,3,4-tetrazol-1-yl)imidazo[1,5-a]pyridin-6-yl]phenyl]-2-methoxypyridine-3-sulfonamide] | < 50 nM
COc1ncc(Cl)cc1S(=O)(=O)Nc1ccc(F)c([C@@H]2CCn3c(cnc3-c3ncc[nH]3)C2)c1F [Compound 64-1, (R)—N-(3-(3-(1H-imidazol-2-yl)-5,6,7,8-tetrahydroimidazo[1,5-a]pyridin-7-yl)-2,4-difluorophenyl)-5-chloro-2-methoxypyridine-3-sulfonamide] | < 50 nM
COc1ncc(Cl)cc1S(=O)(=O)Nc1ccc(F)c([C@H]2CCn3c(cnc3-c3ncc[nH]3)C2)c1F [Compound 64-2, (S)—N-(3-(3-(1H-imidazol-2-yl)-5,6,7,8-tetrahydroimidazo[1,5-a]pyridin-7-yl)-2,4-difluorophenyl)-5-chloro-2-methoxypyridine-3-sulfonamide] | < 50 nM
Cc1ncc(Cl)cc1S(=O)(=O)Nc1ccc(F)c(-c2ccc3c(-c4nnc[nH]4)ncn3c2)c1F [Compound 65, 5-chloro-N-[2,4-difluoro-3-[1-(4H-1,2,4-triazol-3-yl)imidazo[1,5-a]pyridin-6-yl]phenyl]-2-methylpyridine-3-sulfonamide] | < 50 nM
COc1ncc(C#N)cc1S(=O)(=O)Nc1ccc(F)c(-c2ccc3c(-c4nc5ccccc5[nH]4)ncn3c2)c1F [Compound 66, N-[3-[1-(1H-1,3-benzodiazol-2-yl)imidazo[1,5-a]pyridin-6-yl]-2,4-difluorophenyl]-5-cyano-2-methoxypyridine-3-sulfonamide] | < 50 nM
COc1ncc(C#N)cc1S(=O)(=O)Nc1ccc(F)c(-c2cn3cnc(-c4ncc[nH]4)c3cn2)c1F [Compound 69, 5-cyano-N-[2,4-difluoro-3-[1-(1H-imidazol-2-yl)imidazo[1,5-a]pyrazin-6-yl]phenyl]-2-methoxypyridine-3-sulfonamide] | < 50 nM
COc1ncc(F)cc1S(=O)(=O)Nc1ccc(F)c(-c2ccc3c(-c4nnc[nH]4)ncn3c2)c1F [Compound 70, N-[2,4-difluoro-3-[1-(4H-1,2,4-triazol-3-yl)imidazo[1,5-a]pyridin-6-yl]phenyl]-5-fluoro-2-methoxypyridine-3-sulfonamide] | < 50 nM
COc1ncc(C#N)cc1S(=O)(=O)Nc1ccc(F)c(-c2ccc3c(-c4nnc[nH]4)ncn3c2)c1F [Compound 71, 5-cyano-N-[2,4-difluoro-3-[1-(4H-1,2,4-triazol-3-yl)imidazo[1,5-a]pyridin-6-yl]phenyl]-2-methoxypyridine-3-sulfonamide] | < 50 nM
Cc1ncc(F)cc1S(=O)(=O)Nc1ccc(F)c(-c2ccc3c(-c4nnc[nH]4)ncn3c2)c1F [Compound 72, N-[2,4-difluoro-3-[1-(4H-1,2,4-triazol-3-yl)imidazo[1,5-a]pyridin-6-yl]phenyl]-5-fluoro-2-methylpyridine-3-sulfonamide] | < 50 nM
COc1ncc(F)cc1S(=O)(=O)Nc1ccc(F)c(-c2ccc3c(-n4cnnn4)ncn3c2)c1F [Compound 74, N-[2,4-difluoro-3-[1-(1,2,3,4-tetrazol-1-yl)imidazo[1,5-a]pyridin-6-yl]phenyl]-5-fluoro-2-methoxypyridine-3-sulfonamide] | < 50 nM
COc1ncc(C#N)cc1S(=O)(=O)Nc1ccc(F)c(-c2ccc3c(-n4cnnn4)ncn3c2)c1F [Compound 75, 5-cyano-N-[2,4-difluoro-3-[1-(1,2,3,4-tetrazol-1-yl)imidazo[1,5-a]pyridin-6-yl]phenyl]-2-methoxypyridine-3-sulfonamide] | < 50 nM
Cc1ncc(F)cc1S(=O)(=O)Nc1ccc(F)c(-c2ccc3c(-n4cnnn4)ncn3c2)c1F [Compound 76, N-[2,4-difluoro-3-[1-(1,2,3,4-tetrazol-1-yl)imidazo[1,5-a]pyridin-6-yl]phenyl]-5-fluoro-2-methylpyridine-3-sulfonamide] | < 50 nM
Cc1ncc(Cl)cc1S(=O)(=O)Nc1ccc(F)c(-c2ccc3c(-n4cnnn4)ncn3c2)c1F [Compound 77, 5-chloro-N-[2,4-difluoro-3-[1-(1,2,3,4-tetrazol-1-yl)imidazo[1,5-a]pyridin-6-yl]phenyl]-2-methylpyridine-3-sulfonamide] | < 50 nM
COc1ncc(F)cc1S(=O)(=O)Nc1ccc(F)c(-c2cn3cnc(-c4ncc[nH]4)c3cn2)c1F [Compound 78, N-[2,4-difluoro-3-[1-(1H-imidazol-2-yl)imidazo[1,5-a]pyrazin-6-yl]phenyl]-5-fluoro-2-methoxypyridine-3-sulfonamide] | < 50 nM
COc1ncc(Cl)cc1S(=O)(=O)Nc1ccc(F)c([C@H]2CCc3c(-c4ncc[nH]4)ncn3C2)c1F [Compound 79-1, 5-chloro-N-[2,4-difluoro-3-[(6R)-1-(1H-imidazol-2-yl)-5H,6H,7H,8H-imidazo[1,5-a]pyridin-6-yl]phenyl]-2-methoxypyridine-3-sulfonamide] | < 50 nM
COc1ncc(Cl)cc1S(=O)(=O)Nc1ccc(F)c([C@@H]2CCc3c(-c4ncc[nH]4)ncn3C2)c1F [Compound 79-2, 5-chloro-N-[2,4-difluoro-3-[(6S)-1-(1H-imidazol-2-yl)-5H,6H,7H,8H-imidazo[1,5-a]pyridin-6-yl]phenyl]-2-methoxypyridine-3-sulfonamide] | < 50 nM
Cc1ncc(F)cc1S(=O)(=O)Nc1ccc(F)c([C@H]2CCc3c(-c4ncc[nH]4)ncn3C2)c1F [Compound 80-1, N-[2,4-difluoro-3-[(6R)-1-(1H-imidazol-2-yl)-5H,6H,7H,8H-imidazo[1,5-a]pyridin-6-yl]phenyl]-5-fluoro-2-methylpyridine-3-sulfonamide] | < 50 nM
Cc1ncc(F)cc1S(=O)(=O)Nc1ccc(F)c([C@@H]2CCc3c(-c4ncc[nH]4)ncn3C2)c1F [Compound 80-2, N-[2,4-difluoro-3-[(6S)-1-(1H-imidazol-2-yl)-5H,6H,7H,8H-imidazo[1,5-a]pyridin-6-yl]phenyl]-5-fluoro-2-methylpyridine-3-sulfonamide] | < 50 nM
COc1ncc(F)cc1S(=O)(=O)Nc1ccc(F)c([C@H]2CCc3c(-c4ncc[nH]4)ncn3C2)c1F [Compound 81-1, N-[2,4-difluoro-3-[(6R)-1-(1H-imidazol-2-yl)-5H,6H,7H,8H-imidazo[1,5-a]pyridin-6-yl]phenyl]-5-fluoro-2-methoxypyridine-3-sulfonamide] | < 50 nM
COc1ncc(F)cc1S(=O)(=O)Nc1ccc(F)c([C@@H]2CCc3c(-c4ncc[nH]4)ncn3C2)c1F [Compound 81-2, N-[2,4-difluoro-3-[(6S)-1-(1H-imidazol-2-yl)-5H,6H,7H,8H-imidazo[1,5-a]pyridin-6-yl]phenyl]-5-fluoro-2-methoxypyridine-3-sulfonamide] | < 50 nM
